Test results from US20220170096A1, “INTERLEUKIN-4-INDUCED GENE 1 (IL4I1) AS A BIOMARKER AND USES THEREOF” (DEUTSCHES KREBSFORSCHUNGSZENTRUM STIFTUNG DES OEFFENTLICHEN …, priority 2019, published 2022).

Key:
AHR = AHR target gene expression (microarray, qRT-PCR) in glioblastoma cells treated with IL4I1 metabolites; assay type: cell-based, human; settings: U-87MG cells; for induction of the AHR target gene TIPARP (mRNA): 24 h, KynA 50 μM; for modulation of AHR target genes / AHR activation signature genes: 40 μM for 24 h (microarray), TIPARP mRNA 24 h
Method: Array datasets—The affymetrix microarray chips “human gene 2.0 ST” were analyzed using the oligo package and annotated using NetAffx (14). Raw CEL files were RMA normalized and summarized. Differential gene expression was performed using the limma pipeline for microarrays (15).
For treatment of adherent cells with established and hypothetical AHR ligands, 4×10^5 cells per well were seeded in six well plates and incubated for 24 h prior to treatment. Non-adherent cells were seeded in 24 well plates at 5×10^5 cells in 1 mL and treated immediately. For verification of the generated AHR signature, cells were treated with the established AHR agonist Kyn (50 μM, SigmaAldrich, K8625) for 24 h. […] When using the AHR antagonist SR1 (1 μM, Merck Millipore, 182706), cells were treated for 24 h alone or in combination with AHR ligands.
Total RNA was harvested from cultured cells using the RNeasy Mini Kit (Qiagen, 80204) followed by cDNA synthesis using the High Capacity cDNA reverse transcriptase kit (Applied Biosystems, 4368813). A StepOne Plus real-time PCR system (Applied Biosystems) was used to perform real-time PCR of cDNA samples using SYBR Select Master mix (Thermo Scientific, 4309155). Data was processed and analysed using the StepOne Software v 2.3. Relative quantification of target genes was done against RNA18S as reference gene using the […] method.

GFP-tagged Ahr = biological target: T1, GFP-tagged Ahr (Mus musculus, UniProt P30561); assay: AHR nuclear translocation assay in GFP-Ahr expressing tao BpRc1c cells; assay type: cell-based, murine; settings: 25 μM, 4 h
T1 construct: expressed in transfected cells; host or cells: murine hepatoma tao BpRc1 cells (deficient of endogenous Ahr), retroviral transfection, tet-off system
T1 sequence (P30561 10-848): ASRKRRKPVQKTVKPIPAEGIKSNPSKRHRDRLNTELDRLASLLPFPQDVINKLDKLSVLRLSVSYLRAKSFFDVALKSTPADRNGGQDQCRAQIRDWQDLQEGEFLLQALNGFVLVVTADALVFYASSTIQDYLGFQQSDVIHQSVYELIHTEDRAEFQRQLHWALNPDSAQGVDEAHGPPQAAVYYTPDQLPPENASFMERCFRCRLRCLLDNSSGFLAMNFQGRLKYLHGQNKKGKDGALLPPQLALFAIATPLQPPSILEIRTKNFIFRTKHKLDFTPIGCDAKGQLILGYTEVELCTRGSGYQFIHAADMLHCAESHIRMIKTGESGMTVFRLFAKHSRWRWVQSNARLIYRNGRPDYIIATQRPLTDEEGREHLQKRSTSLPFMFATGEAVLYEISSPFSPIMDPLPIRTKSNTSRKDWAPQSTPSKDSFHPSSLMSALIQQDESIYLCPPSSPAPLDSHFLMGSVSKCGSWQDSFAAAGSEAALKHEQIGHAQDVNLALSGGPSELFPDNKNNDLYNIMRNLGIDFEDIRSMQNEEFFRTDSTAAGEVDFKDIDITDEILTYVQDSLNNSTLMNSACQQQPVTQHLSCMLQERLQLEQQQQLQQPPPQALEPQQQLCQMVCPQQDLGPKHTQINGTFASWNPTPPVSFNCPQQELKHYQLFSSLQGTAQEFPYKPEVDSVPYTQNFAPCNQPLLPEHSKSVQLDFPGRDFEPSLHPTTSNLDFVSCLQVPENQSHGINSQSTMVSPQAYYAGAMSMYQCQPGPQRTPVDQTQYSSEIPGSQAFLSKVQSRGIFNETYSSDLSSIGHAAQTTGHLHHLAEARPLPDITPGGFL
Method: Stably transfected tao BpRc1c cells, expressing a GFP-tagged Ahr under tetracycline control, were used to visualize nuclear translocation of Ahr.
For induction of GFP-Ahr expression in the transgenic tao BpRc1c cells, cells were taken off tetracycline 24 h before translocation assays. Assays were performed in black clear bottom 96-well plates (BD, #353219) with 7500 cells/well in 150 μl/well. Metabolites were added in 50 μL/well induction medium. Cells were exposed for 4h to 25 μM PP, HPP, and I3P respectively. Medium was discarded and cells fixed with pre-warmed 3.7% formaldehyde in PBS (10 min at RT). After fixation cells were washed with detergent buffer (DB, 0.01% Tween20 in PBS, Sigma Aldrich), followed by permeabilization with 0.1% Triton X-100 in PBS (Sigma Aldrich) for 15 min at RT. Cells were washed twice with DB and incubated with 0.4 ng/ml Hoechst 33342 (Sigma Aldrich) for 30 min at RT protected from light. After washing with DB and PBS cells were stored in PBS at 4° C. until translocation analysis. Translocation by KynA was monitored by live cell imaging after 3 h of exposure including the appropriate negative medium control. Translocation of Ahr by the different metabolites was monitored on a BD Pathway Imager 855.

U-87MG cells = assay: Metabolites in supernatants of U-87MG cells treated with I3P; assay type: cell-based, human; settings: increasing concentrations of I3P, 24 h
Method: For treatment of adherent cells with established and hypothetical AHR ligands, 4×10^5 cells per well were seeded in six well plates and incubated for 24 h prior to treatment. Non-adherent cells were seeded in 24 well plates at 5×10^5 cells in 1 mL and treated immediately. For verification of the generated AHR signature, cells were treated with the established AHR agonist Kyn (50 μM, SigmaAldrich, K8625) for 24 h. In order to investigate the potential of direct and downstream IL4I1 metabolites to activate the AHR, cells were treated with […] When using the AHR antagonist SR1 (1 μM, Merck Millipore, 182706), cells were treated for 24 h alone or in combination with AHR ligands. […] Consumption of phenylalanine, tyrosine and Trp by IL4I1-expressing and non-expressing U-87MG and U-251MG cells was assessed by quantification of the amino acids in the cell culture supernatants after 120 h incubation. […] The derivatization product was separated at 42° C. on an Acquity BEH C18 column (Waters) using an Acquity H-class UPLC system (Waters) coupled to an Acquity fluorescence detector (FLR) (Waters). Samples were analyzed on the UPLC as described before by Yang et. al., 2015^21. […] Trp was detected by fluorescence (Acquity FLR detector, Waters, excitation: 254 nm, emission: 401 nm). Standards were used for quantification (Sigma). […] For targeted quantification of the metabolites, MRM mode was used. […]

[1] = Conversion of I3P to kynurenic acid in PBS with or without H2O2 (HPLC); assay type: physicochemical; settings: 3.33 mg/mL I3P in PBS, 24 h, with or without 1 mM H2O2
Method: Black, lowest peak: 3.33 mg/mL I3P in phosphate buffered saline (PBS) incubated for 24 h. Grey peak: 3.33 mg/mL I3P incubated in PBS in the presence of 1 mM H2O2 for 24 h (n=2). c-e, TIPARP mRNA expression in U-87MG cells treated with IAA (c), ILA (d), I3CA (e) or vehicle for 24 h (n=3). f, TIPARP mRNA expression in shCtrl and shAHR U-87MG cells treated with 50 μM KynA or vehicle for 24 h (n=3). g, Representative images of GFP-Ahr expressing tao BpRc1c cells treated with either vehicle or 50 μM KynA for 1 h. n values represent independent experiments. Data are presented as mean±S.E.M and were analyzed by two-tailed paired student's t-test (a, b, h) or repeated measures ANOVA with Dunnett's multiple comparisons test (c, e-g). *P<0.05, **P<0.01, ***P<0.001, ****P<0.0001. n.s., not significant.

Row | SMILES | induction of the AHR target gene TIPARP (mRNA) (AHR) | modulation of AHR target genes / AHR activation signature genes (AHR) | nuclear translocation of the AHR (GFP-tagged Ahr) | IAA, I3CA and kynurenic acid in the cell supernatants after treatment (U-87MG cells) | formation of kynurenic acid from I3P [1]
1 | O=Cc1c[nH]c2ccccc12 [I3CA, indole-3-carboxaldehyde] | induced TIPARP transcripts | – | – | – | –
2 | O=C(O)C(O)Cc1c[nH]c2ccccc12 (stereo not shown) [I3L, indole-3-lactic acid] | did not observe relevant induction | – | – | – | –
3 | O=C(O)C(=O)Cc1c[nH]c2ccccc12 [I3P, indole-3-pyruvic acid] | – | significant regulation | observed only in response to I3P | dose-dependent increase | formed spontaneously from I3P, which was enhanced in the presence of H2O2
4 | O=C(O)C(=O)Cc1ccccc1 [PP, phenylpyruvic acid] | – | did not elicit relevant modulation | – | – | –
